One assay has as its system pERK in NCI-H358 cells. Description: Cell-based pERK HTRF assay. To be noted: 30 min incubation, read-out: pERK in NCI-H358 cell inhibition IC50. Here is the method: pERK assays (Perkin Elmer) were used to determine the effectiveness of compounds of the present disclosure in disrupting KRAS G12C protein/effector signaling in cells.
On Day 1, cells (NCI-H358) were seeded into 96-well plates at 4×10^4 cells/well in complete growth media (RPMI, 10% FBS).
On Day 2, cells were treated with compounds at 0.25% DMSO. The source plate was created with compounds diluted in media at 5-fold the final assay concentration. The compounds were run in a 9-point concentration curve starting at 75 μM, with a 3-fold dilution between concentrations. 20 μL was transferred onto the cell plates (final volume in wells was 100 μL). Plates were harvested after 30 min incubation by aspirating media and adding kit-supplied 1× supplemented lysis buffer to all wells (75 μl per well). Plates were then placed on a plate shaker and incubated at 850 rpm for an additional 30 min.
Antibody mixture solution was prepared by diluting aliquoted d2 and Eu Cryptate antibodies 1:20 in kit supplied detection buffer, then mixed the diluted antibodies solutions (1:1 v:v). 4 μL of this solution was then added to a 384-well detection plate (Perkin Elmer; 6008230).
Samples were homogenized by pipetting up and down and then transferred (16 μL of cell lysates) from the 96-well cell culture plate to two wells of the HTRF 384-well detection plate containing the antibody solution. Plates were centrifuged (524 g for Imin) and allowed to incubate between 4 and 24 h at room temperature. Maximum signal is reached after 4 h incubation time and remains stable over a period of 24 hours. Therefore, readings can be made between 4 and 24 h of incubation. Plates were centrifuged again (524 g for Imin) and analyzed on the En Vision plate reader using the following settings: Excitation 320 nm, Bandwidth 75 nm; Emission 615 nm, Bandwidth 85 nm; Gain 100%; Flashes 100; Lag 60 μs.

The target in assay [1] is T1, GDP-loaded KRAS4b (amino acids 1-169) G12C/C118S protein (Homo sapiens, UniProt P01116, C118S/G12C).
T1 construct: KRAS4b (amino acids 1-169) G12C/C118S protein; made in house
Description: Covalent cysteine 12 modification by MALDI-TOF MS, GDP-loaded KRAS G12C. Type of assay: binding. To be noted: 15 minutes reaction time point. On the procedure:
(§1) Reaction: 1 μM of GppNHp-, GTP-, or GDP-loaded KRAS4b (amino acids 1-169) G12C/C118S protein (produced in-house by Protein Expression Laboratory, FNLCR/Leidos Biomed) in 20 mM 4-(2-hydroxyethyl)-1-piperazineethanesulfonic acid (HEPES) buffer containing 150 mM NaCl, 1 mM MgCl2, pH 7.3 was prepared freshly before assay. Ten-μL aliquots of protein were dispensed onto low volume 384-well plate, then 375 nL DMSO, and 25 nL of tested compounds from 5 mM DMSO stocks were added to appropriate wells using ECHO 555 acoustic liquid handler (Labcyte Inc.). For each reaction/assay, three blanks were prepared by mixing 10 μL of protein solution with 400 nL DMSO. The contents of the wells were carefully mixed by aspiration, and then each plate was sealed with an adhesive cover, centrifuged at 2000 g for 1 minute, and kept in the dark at room temperature until 5 min, 15 min, 30 min, or 2 h collections.
(§2) Target pretreatment: Before each assay MALDI target (Bruker MPT 384 ground steel BC) was pre-treated by pipetting on each spot 0.75 μL of saturated sinapinic acid in acetonitrile (ACN).
(§3) Sample preparation: At collection time point, 2 μL of reaction mixtures were pipetted out into 20 μL MALDI matrix solution (saturated solution of sinapinic acid in 1:1 ACN:water solution containing 0.75% trifluoroacetic acid (TFA)) deposited on 384 well polypropylene plate. Resulting solution was mixed by aspiration, centrifuged at 2000 g for 1 minute, then 1 μL aliquots were dispensed on pre-treated MALDI target using Beckman Coulter Biomek FXP 96/384-Span-8 Laboratory Automation Workstation. Finally, the MALDI target was dried under mild vacuum to produce spots with fine crystalline structure.
(§4) Measurements: MALDI-TOF measurements were performed on a Bruker Daltonics rapiflex Tissuetyper TOF-TOF mass spectrometer using linear mode and mass range from 18.6 to 21.6 kDa. Detector gain was set to 3.3× (483 V), sample rate to 5 GS/s, real time smoothing to medium (175 MHz), laser smart beam pattern was set to: “MS Thin Layer M5”, and the laser frequency was 10000 Hz. Spectra were automatically collected using custom Auto Xecute method. Laser power was auto adjusted using fuzzy control. The peak selection range was set to be between 19000 and 21500 Da. Peak evaluation uses half width parameter set to be smaller than 40 Da for processed spectrograms (centroid peak detection; smoothed by SavitzkyGolay algorithm using 7 m/z width and 2 cycles; baseline was subtracted using median algorithm with flatness 1 and median level 0.01). Fuzzy control used Proteins/Oligonucleotides protocol with minimum half width 1/10 times above threshold. Up to 40000 satisfactory shots were collected in 10000 shot steps. Dynamic termination was implemented to finish data collection when peak signal/noise ratio was reaching value of 50.
(§5) Spectra processing: Spectra were smoothed by SavitzkyGolay algorithm using 7 m/z width and three cycles. Centroid peak detection algorithm was used with signal to noise threshold set to 6, relative intensity threshold 4%, peak width 10 m/z and median baseline subtraction using flatness of 1 and median level of 0.01. Peak intensity and area under the peak were evaluated and recorded for all peaks between 19,300 Da and 21,550 Da.
(§6) Calculation of percent modification: Percent modification was calculated as a ratio of peak height for protein modified by compound to sum of peak height of remaining protein plus peak height for protein modified by compound. If multiple modifications were observed each was calculated as a ratio of peak height for given modification versus sum of peak heights for all observed protein species. Data reported in Table 5 are from 15 minutes reaction time point.

In assay [2] the target is T2, GppNHp-loaded KRAS4b (amino acids 1-169) G12C/C118S protein (Homo sapiens, UniProt P01116, C118S/G12C).
T2 construct: KRAS4b (amino acids 1-169) G12C/C118S protein; made in house
Description: Covalent cysteine 12 modification by MALDI-TOF MS, GppNHp-loaded KRAS G12C. Type of assay: binding. To be noted: 15 minutes reaction time point. On the procedure:
as §1, §2, §3, §4, §5, §6

The target in assay [3] is T3, Avi-KRAS G12C (1-169) GppNHp/RAF1 RBD-3×FLAG (52-151) (Homo sapiens, UniProt P01116, G12C).
T3 construct: Avi-KRAS G12C (1-169) GppNHp/RAF1 RBD-3×FLAG (52-151)
Description: Raf1 RBD-KRAS G12C-GppNHp disruption (protein:protein interaction HTRF assay). Type of assay: biochemical. On the procedure:
A protein: protein (PPI) interaction Homogeneous Time Resolved Fluorescence (HTRF) assay was used to determine the effectiveness of compounds of the present disclosure in disrupting KRAS G12C protein and effector (RAF1 or PIK3CA) binding.
The HTRF assay used the following reagents and proteins: 50 nM Avi-KRAS G12C Q25A (1-169) GppNHp/3×FLAG-PI3K CA (157-299); 50 nM Avi-KRAS G12C (1-169) GppNHp/RAF1 RBD-3×FLAG (52-151); 35 nM Avi-PI3K RBD-3×FLAG; Assay Buffer: 50 mM Tris pH 7.5, 100 mM NaCl, 5 mM MgCl2, 0.1% BSA, 0.01% Tween 20, 10% DMSO; Bead Buffer: 50 mM Tris pH 7.5, 0.01% Tween 20; Assay volume: 20 μL (384 well plate-low volume format); and Compound titration: 30-0.02 μM, 3× dilution series.
The HTRF assay employed the following protocol:
Compounds were dispensed in assay plate (384-well, Grenier Bione #784075) using Echo (model 555) with dose response settings: 200 nL final volume, titration from 100 μM as a 10-point dilution series. KRAS proteins were prepared in assay buffer, and dispensed on plates, 5 μL per well, then incubated for 1 h at room temperature, with 700 rpm shaking. RAF1 RBD and PI3K RBD CA were prepared in assay buffer, dispensed onto plates, 5 μL per well, and then incubated for 1 h at room temperature, with 700 rpm shaking. Reagent mix was then prepared and dispensed on plates, 10 μL per well, and then incubated for 1 h at room temperature, with 700 rpm shaking.
Plates were analyzed on an Envision plate reader using the following setting: Excitation 320 nm, Bandwidth 75 nm; Emission 615 nm, Bandwidth 85 nm; Gain 100%; Flashes 100; Lag 60 μs. Data was reported as percentage of activity, with DMSO as 100%. Data was plotted and analyzed using Prism 8.
For orientation: Time-resolved FRET reads energy transfer from a long-lived donor to a nearby acceptor.

Like-named read-outs stand apart in the source and are kept apart here.

As a reminder, the IC50 is the concentration that gives 50% inhibition.

With `C=CC(=O)N1C[C@H](Oc2nc(OC[C@@]34CCCN3C[C@H](F)C4)nc3c(F)c(-c4ccc(F)c5sc(N)nc45)c(C(F)(F)F)cc23)C[C@H]1C` (atropisomer, axis not shown) [Compound 38], the concentration for half-maximal inhibition (IC50) fell in the range of 100 to 1000 nM in the assay with pERK in NCI-H358 cells and 500 to 5000 nM in assay [3]. For the same compound, the “GDP-KRAS G12C percent of modification” value in assay [1] was “D (percent of modification <10%)”. Further, in assay [2], the “GppNHp-KRAS G12C percent of modification” value is “D (percent of modification <10%)”.

On to `C=CC(=O)N1C[C@@H](C)[C@@H](Oc2nc(OC[C@@]34CCCN3C[C@H](F)C4)nc3c(F)c(-c4ccc(F)c5sc(N)nc45)c(C(F)(F)F)cc23)C1` (atropisomer, axis not shown) [Compound 39], for which the values for the IC50 (with pERK in NCI-H358 cells; in assay [3]) were 100 to 1000 nM and 500 to 5000 nM, respectively. Further, the “GDP-KRAS G12C percent of modification” value in assay [1] was “C (10%≤modification <50%)”. Also, the “GppNHp-KRAS G12C percent of modification” value in assay [2] is reported as “C (10%≤modification <50%)”.

Turning to `C=CC(=O)N1CC(Oc2nc(OC[C@@H]3CCCN3C)nc3c(F)c(-c4ccc(F)c5sc(N)nc45)c(Cl)cc23)C1` [Compound 1], the concentration for half-maximal inhibition (IC50) is 100 to 1000 nM in the assay on pERK in NCI-H358 cells (Homo sapiens, NCI-H358, 0.5 h) and 500 to 5000 nM in assay [3]. Further, the “GDP-KRAS G12C percent of modification” value in assay [1] is recorded as “A (percent of modification ≥70%)”. For the same compound, in assay [2], the “GppNHp-KRAS G12C percent of modification” value was “C (10%≤modification <50%)”.

Regarding `C=CC(=O)N1CC(Oc2nc(OC[C@@]34CCCN3C[C@H](F)C4)nc3c(F)c(-c4ccc(F)c5sc(N)nc45)c(C(F)(F)F)cc23)[C@@H](C)C1` (stereo partly drawn) [Compound 34], the IC50 was at most 100 nM with pERK in NCI-H358 cells (Homo sapiens, NCI-H358, 0.5 h) and at most 500 nM in assay [3]. Besides, the “GDP-KRAS G12C percent of modification” value in assay [1] was “A (percent of modification ≥70%)”. The “GppNHp-KRAS G12C percent of modification” value in assay [2] is “B (50≤percent of modification <70%)”.

On to `C=CC(=O)N1C[C@@H](C)[C@@H](Oc2nc(OC[C@@]34CCCN3C[C@H](F)C4)nc3c(F)c(-c4ccc(F)c5sc(N)nc45)c(C(F)(F)F)cc23)C1` (atropisomer, axis not shown) [Compound 27], for which the 50% inhibitory concentration (IC50) was at most 100 nM with pERK in NCI-H358 cells (Homo sapiens, NCI-H358, 0.5 h) and at most 500 nM in assay [3]. In addition, the “GDP-KRAS G12C percent of modification” value in assay [1] is reported as “A (percent of modification ≥70%)”. For the same compound, the “GppNHp-KRAS G12C percent of modification” value in assay [2] was “C (10%≤modification <50%)”.

For `C=CC(=O)N1CC[C@@H](Oc2nc(OC[C@@]34CCCN3C[C@H](F)C4)nc3c(F)c(-c4ccc(F)c5sc(N)nc45)c(C(F)(F)F)cc23)[C@@H]1C` (atropisomer, axis not shown) [Compound 41], the IC50 was 100 to 1000 nM in the assay on pERK in NCI-H358 cells and at most 500 nM in assay [3]. In addition, the “GDP-KRAS G12C percent of modification” value in assay [1] is “A (percent of modification ≥70%)”. Moreover, the “GppNHp-KRAS G12C percent of modification” value in assay [2] is listed as “C (10%≤modification <50%)”.

As for `C=CC(=O)N1CC(Oc2nc(OC[C@@H]3C[C@@H](F)CN3C)nc3c(F)c(-c4ccc(F)c5sc(N)nc45)c(C(F)(F)F)cc23)C1` [Compound 23], the half-inhibitory concentration (IC50) in the assay with pERK in NCI-H358 cells (Homo sapiens, NCI-H358, 0.5 h) fell in the range of 100 to 1000 nM; in assay [3] it was 500 to 5000 nM. Besides, the “GDP-KRAS G12C percent of modification” value in assay [1] is listed as “B (50≤percent of modification <70%)”. The “GppNHp-KRAS G12C percent of modification” value in assay [2] was “C (10%≤modification <50%)”.

As for `C=CC(=O)N1CC[C@@H](Oc2nc(OC[C@@]34CCCN3C[C@H](F)C4)nc3c(F)c(-c4ccc(F)c5sc(N)nc45)c(Cl)cc23)C1` (atropisomer, axis not shown) [Compound 10], the half-maximal inhibitory concentration (IC50) lay within 100 to 1000 nM with pERK in NCI-H358 cells and 500 to 5000 nM in assay [3]. Also, in assay [1], the “GDP-KRAS G12C percent of modification” value is on record as “D (percent of modification <10%)”. For the same compound, the “GppNHp-KRAS G12C percent of modification” value in assay [2] is “D (percent of modification <10%)”.

As for `C=CC(=O)N1CC[C@@H](Oc2nc(OC[C@@]34CCCN3C[C@H](F)C4)nc3c(F)c(-c4ccc(F)c5sc(N)nc45)c(C(F)(F)F)cc23)C1` (single isomer, unassigned) [Compound 12], the IC50 in the assay on pERK in NCI-H358 cells was 100 to 1000 nM; in assay [3], 500 to 5000 nM. Also, in assay [1], the “GDP-KRAS G12C percent of modification” value was “D (percent of modification <10%)”. Besides, the “GppNHp-KRAS G12C percent of modification” value in assay [2] is listed as “D (percent of modification <10%)”.

Source of the values: US20250188085A1, “COMPOSITIONS AND METHODS FOR INHIBITION OF RAS” (THERAS, INC., priority 2022, published 2025).
